According to patent US20190125790A1, “USE OF HYPOCHLOROUS ACID AS A TOPICAL ANTIMICROBIAL” (BIIOSMART TECHNOLOGIES LLC, priority 2016, published 2019):

Columns and labels:
[1] = system: Staphylococcus aureus; assay: Antimicrobial efficacy of HOCl skin cleanser (Table 1); assay type: cell-based; conditions: 0.01% HOCl; 30 seconds
[2] = system: S. pyogenes; assay: Efficacy at 30 seconds (Table 2); assay type: cell-based; conditions: 0.01 to 0.05% aqueous solution
[3] = system: MRSA; assay: Efficacy at 30 seconds (Table 2); assay type: cell-based, methicillin-resistant staphylococcus aureus; conditions: 0.01 to 0.05% aqueous solution
[4] = system: Vesicular Stomatitis Virus (VSV); assay type: cell-based; conditions: 0.04% HOCl aqueous solution; 30 seconds
[5] = system: Trichophyton mentagrophytes; assay: Efficacy at 30 seconds (Table 2); assay type: cell-based; conditions: 0.01 to 0.05% aqueous solution
[6] = Randomized double blind placebo controlled trial as sexual cleanser; assay type: in vivo, human; conditions: six months
Text: The purpose of this study was to evaluate the real world use and effect of the solution in a group of 47 willing participants located in Cartagena, Colombia. These willing participants were all active sex workers, whom on a weekly basis, were actively engaged in sexual intercourse with the general public. This demographic was selected as a “high risk” group of individuals that frequently encounter many forms of sexually transmitted infections. Throughout the study, the “HOCl test” group was compared with the “placebo” group in an effort to gauge the efficacy of prevention and treatment for contact-to-contact sexually transmitted infections as well as common infections related to sex. […] The patients were required to complete extensive evaluations regarding their sexual health and lifestyles. The duration of the study was six months.

[7] = Biocompatibility in treated patients; assay type: in vivo, human; conditions: 0.05% HOCl aqueous solution; over 20,000 patients treated
Text: The 0.05% HOCl concentration aqueous solution is biocompatible and found to have a high safety profile. Over 20,000 patients have been treated with the solution with zero reported cases of hypersensitivity. The solution is pH controlled for biocompatibility, formulated for use on sensitive mucous membrane areas of the body, is non-antibiotic, non-irritating, non-allergenic, non-invasive, and non-toxic. No adverse effects against cellular growth in the patient.

[8] = system: VRE; assay: Efficacy at 30 seconds (Table 2); assay type: cell-based, vancomycin-resistant enterococci; conditions: 0.01 to 0.05% aqueous solution
[9] = Sub. Chronic Toxicity. 90 days; assay type: in vivo
Text: (§1) Table 5. contains the results of several acute and sub-chronic toxicity tests.

[10] = system: Klebsiella oxytoca; assay: Antimicrobial efficacy of HOCl skin cleanser (Table 1); assay type: cell-based; conditions: 0.01% HOCl; 30 seconds
[11] = Non-randomized study of skin ulcers, 822 patients; assay type: in vivo, human; conditions: 0.046% HOCl aqueous solution
Procedure: A non-randomized, non-placebo controlled study involving 822 patients with a variety of ulcers was conducted. These patients were treated with HOCl aqueous solution (0.046%) as the only therapeutic intervention and followed the patients for six months to evaluate ulcer closure as a marker of therapeutic success.

[12] = Controlled randomized single blind clinical trial in surgical open wounds; assay type: in vivo, human
Procedure: The biocompatibility of the 0.046% HOCl concentration aqueous solution was tested in a three way controlled and randomized single blind clinical trial. Patients were randomized into three groups (60 patients per group). The antiseptic efficacy and biocompatibility of the test solution vs. povidone-iodine vs. chlorhexidine (Chlorhexidine Gluconate—CHG) in surgical—clean and clean contaminated—open wounds was evaluated in 180 patients admitted to the surgical facilities of Erasmo Meoz Hospital in Cucuta, Colombia.

[13] = system: Enterobacter cloacae; assay: Antimicrobial efficacy of HOCl skin cleanser (Table 1); assay type: cell-based; conditions: 0.01% HOCl; 30 seconds
[14] = system: S. pyogenes; assay: as above; assay type: cell-based; conditions: 0.01% HOCl; 30 seconds
[15] = Acute Oral Toxicity; conditions: both sexes, rat, in vivo, 5000 mg/Kg, Wistar Rats, 0.05% concentration HOCl aqueous solutions, males and females, read-out: acute median lethal dose LD50
Text: as §1

[16] = system: Pseudomona aeruginosa; assay: Antimicrobial efficacy of HOCl skin cleanser (Table 1); assay type: cell-based; conditions: 0.01% HOCl; 30 seconds
[17] = system: Enterococcus faecalis; assay: as above; assay type: cell-based; conditions: 0.01% HOCl; 30 seconds
[18] = system: E. coli NDM-1; assay: Efficacy at 30 seconds (Table 2); assay type: cell-based; conditions: 0.01 to 0.05% aqueous solution
[19] = system: Candida albicans; assay: Antimicrobial efficacy of HOCl skin cleanser (Table 1); assay type: cell-based; conditions: 0.01% HOCl; 30 seconds
[20] = system: S. aureus Linezolid Resistant; assay: Efficacy at 30 seconds (Table 2); assay type: cell-based; conditions: 0.01 to 0.05% aqueous solution
[21] = Acute Inhalation Toxicity; assay type: in vivo, Young Adult Wistar Rats
Text: as §1

[22] = system: E. coli Carbapenem Resistant; assay: Efficacy at 30 seconds (Table 2); assay type: cell-based; conditions: 0.01 to 0.05% aqueous solution
[23] = system: Herpes Simplex; assay: Efficacy at 30 seconds (Table 2); assay type: cell-based; conditions: 0.01 to 0.05% aqueous solution
[24] = system: E. coli; assay: Efficacy at 30 seconds (Table 2); conditions: 0.01 to 0.05% aqueous solution
[25] = HOCl (0.046%) test group, 24 patients

In the case of OCl [HOCl, hypochlorous acid], the “% Reduction” value [1] is reported as 99.999%, the “Log Reduction” value [1] is reported as >6.1 Log10 and the “% Reduction” value [2] is reported as >99.99%. The “Log Reduction” value [2] was >4.97Log10, the “% Reduction” value [3] was 99.999% and the “Log Reduction” value [3] was >5.89 Log10. The “% Reduction” value [4] was 99.9999%, the “Log Reduction” value [4] was 7.66 and the “% Reduction” value [5] was >99.99%. For the same compound, the “Log Reduction” value [5] was >4.92 Log10, the rashes from irritation [6, 25] was “two” and the “rashes from irritation, increase” value [6, 25] was 8.3%. For the same compound, the total infections [6, 25] was “three”, the “total infections, increase” value [6, 25] was 13.5% and the urinary tract infection [6, 25] was “one”. The “urinary tract infection, increase” value [6, 25] was 4.2%, the yeast infections [6, 25] was “zero” and the “reported contact-to-contact STIs” value ([6]; HOCl (0.046%) test group, 24 patients, 85% confidence level) was “zero”. The “change of the pH of the vagina” value ([6]; all 47 patients) was “No significant change”, the “reported cases of hypersensitivity” value [7] was “zero” and the “% Reduction” value [8] was 99.999%. For the same compound, the “Log Reduction” value [8] was >5.51 Log10, the mortalities ([9]; 90 days, 1000 mg/Kg Body weight, Wistar Rats) was “No mortalities, considered” and the toxicity assessment ([9]; rat, in vivo, 1000 mg/kg) was “non-toxic”. The “% Reduction” value [10] was 99.99%, the “Log Reduction” value [10] was >5.50 Log10 and the “interference with antibiotics administered orally” value [11] was “No interference with antibiotics administered orally”. For the same compound, the “local infection rate for all ulcers” value [11] was “Decreased the local infection rate for all ulcers”, the “closing index for venous ulcers” value ([11]; at 6 months) was 97% and the “closure of mixed ulcers” value ([11]; even when a surgical procedure was required) was ≤ 75%. The recurrence rate ([11]; ulcers) was 2.7 % a year, the infected patients ([12]; 0.046% HOCl aqueous solution, 60 patients per group, surgical open wounds) was “no infected patients” and the “wound appearance (biocompatibility)” value ([12]; human, in vivo) was “define edges, good color and hydrated wound beds”. The “% Reduction” value [13] was 99.99%, the “Log Reduction” value [13] was >5.76 Log10 and the “% Reduction” value [14] was 99.99%. For the same compound, the “Log Reduction” value [14] was >6.12 Log10, the LD50 [15] was > 5000 mg/kg and the “% Reduction” value [16] was 99.99%. The “Log Reduction” value [16] was >5.94 Log10, the “% Reduction” value [17] was 99.999% and the “Log Reduction” value [17] was >6.5 Log10. The “% Reduction” value [18] was 99.999%, the “Log Reduction” value [18] was >5.47 Log10 and the “% Reduction” value [19] was 99.99%. The “Log Reduction” value [19] was >5.98 Log10, the “% Reduction” value [20] was 99.999% and the “Log Reduction” value [20] was >5.84 Log10. For the same compound, the “survival after exposure to the test atmosphere” value ([21]; Gravimetric Chamber concentration 2.07 mg/L of HOCl, Wistar Rats) was “Animals All animals survived”, the LC50 ([21]; both sexes, Wistar, rat, in vivo, 2.07 mg/L, male and female rats) was > 2.07 µg/mL and the “% Reduction” value [22] was 99.999%. The “Log Reduction” value [22] was >5.57 Log10, the “% Reduction” value [23] was 99.999% and the “Log Reduction” value [23] was >5.35 Log10. For the same compound, the “Log Reduction” value [24] was >5.87 Log10.
